Assay results published in the supplement of paper PMC10627819.

Tests used:
Assay in all cases: Bliss interaction score (quartile over a dose matrix) (fitness difference); higher = more antagonism (negative = synergy)
[1] = tested on: S. pneumoniae D39V
Procedure, shortened: (§1)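 Each plate was normalised to the robust mean of its own no-drug wells, using OD595 at entry into stationary phase, with values capped at 1. This normalised growth is the fitness value. The Bliss score is the difference between observed and product-expected fitness, with single-drug fitness inferred from the combination data and quartiles taken over technical, biological and donor/recipient replicates.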

[2] = tested on: S. aureus DSM 20231
Procedure, shortened: as §1

[3] = tested on: S. aureus Newman
Procedure, shortened: as §1

[4] = tested on: B. subtilis 168
Procedure, shortened: as §1
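Also: first quartile when negative (synergy) and third quartile when positive (antagonism).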

Row | SMILES | Bliss interaction score [1] | Bliss interaction score [2] | Bliss interaction score [3] | Bliss interaction score [4] | Bliss interaction score ([1]; main component drawn) | Bliss interaction score ([2]; main component drawn) | Bliss interaction score ([3]; main component drawn) | Bliss interaction score ([4]; main component drawn)
1 | CC1=C(C(=O)O)N2C(=O)[C@@H](NC(=O)[C@H](N)c3ccccc3)[C@H]2SC1 [Cephalexin] + C[C@H]1COc2c(N3CCN(C)CC3)c(F)cc3c(=O)c(C(=O)O)cn1c23 [Levofloxacin] | -0.152 | -0.037 | 0.0499 | -0.0126 |  |  |  | 
2 | CC[C@H]1OC(=O)[C@H](C)[C@@H](O[C@H]2C[C@@](C)(OC)[C@@H](O)[C@H](C)O2)[C@H](C)[C@@H](O[C@@H]2O[C@H](C)C[C@H](N(C)C)[C@H]2O)[C@](C)(O)C[C@@H](C)CN(C)[C@H](C)[C@@H](O)[C@]1(C)O [Azithromycin] + CC(=O)O[C@H]1C[C@@]2(C)[C@@H](C[C@@H](O)[C@H]3[C@@]4(C)CC[C@@H](O)[C@@H](C)[C@@H]4CC[C@@]32C)/C1=C(\CCC=C(C)C)C(=O)O [Fusidic acid] | -0.0761 | -0.0342 | 0.0362 | -0.119 |  |  |  | 
3 | CC1=C(C(=O)O)N2C(=O)[C@@H](NC(=O)[C@H](N)c3ccccc3)[C@H]2SC1 [Cephalexin] + CC1(C)S[C@@H]2[C@H](NC(=O)Cc3ccccc3)C(=O)N2[C@H]1C(=O)O [PenicillinG] | -0.199 | -0.0449 | -0.0472 | 0.0543 |  |  |  | 
4 | O=C(O)[C@H]1/C(=C/CO)O[C@@H]2CC(=O)N21 [Clavulanic] + CN[C@H](CC(C)C)C(=O)N[C@H]1C(=O)N[C@@H](CC(N)=O)C(=O)N[C@H]2C(=O)N[C@H]3C(=O)N[C@H](C(=O)N[C@H](C(=O)O)c4cc(O)cc(O)c4-c4cc3ccc4O)[C@H](O)c3ccc(c(Cl)c3)Oc3cc2cc(c3O[C@@H]2O[C@H](CO)[C@@H](O)[C@H](O)[C@H]2O[C@H]2C[C@](C)(N)[C@H](O)[C@H](C)O2)Oc2ccc(cc2Cl)[C@H]1O [Vancomycin] | -0.0704 | 0.0812 | -0.0409 | -0.136 |  |  |  | 
5 | O=C(O)[C@H]1/C(=C/CO)O[C@@H]2CC(=O)N21 [Clavulanic] + CC[C@H]1OC(=O)[C@H](C)[C@@H](O[C@H]2C[C@@](C)(OC)[C@@H](O)[C@H](C)O2)[C@H](C)[C@@H](O[C@@H]2O[C@H](C)C[C@H](N(C)C)[C@H]2O)[C@](C)(O)C[C@@H](C)C(=O)[C@H](C)[C@@H](O)[C@]1(C)O [Erythromycin] | -0.0371 | -0.151 | 0.237 | 0.0508 |  |  |  | 
6 | C[n+]1ccc(-c2cc[n+](C)cc2)cc1 [Paraquat] + C/C(=C\C(=O)OCCCCCCCCC(=O)O)C[C@@H]1OC[C@H](C[C@@H]2O[C@H]2[C@@H](C)[C@H](C)O)[C@@H](O)[C@H]1O [Pseudomonic acid] | -0.0863 | 0.0093 | 0.0152 | 0.0715 |  |  |  | 
7 | CNC(C)C1CCC(N)C(OC2C(N)CC(N)C(OC3OCC(C)(O)C(NC)C3O)C2O)O1 (stereo not drawn) [Gentamicin] + CN[C@H](CC(C)C)C(=O)N[C@H]1C(=O)N[C@@H](CC(N)=O)C(=O)N[C@H]2C(=O)N[C@H]3C(=O)N[C@H](C(=O)N[C@H](C(=O)O)c4cc(O)cc(O)c4-c4cc3ccc4O)[C@H](O[C@H]3C[C@](C)(N)[C@@H](O)[C@H](C)O3)c3ccc(c(Cl)c3)Oc3cc2cc(c3O[C@@H]2O[C@H](CO)[C@@H](O)[C@H](O)[C@H]2O[C@H]2C[C@](C)(NCc3ccc(-c4ccc(Cl)cc4)cc3)[C@@H](O)[C@H](C)O2)Oc2ccc(cc2Cl)[C@H]1O [Oritavancin] |  |  |  |  | 0.0748 | -0.0507 | 0.0919 | 0.048
8 | CC[C@H]1OC(=O)[C@H](C)[C@@H](O[C@H]2C[C@@](C)(OC)[C@@H](O)[C@H](C)O2)[C@H](C)[C@@H](O[C@@H]2O[C@H](C)C[C@H](N(C)C)[C@H]2O)[C@](C)(O)C[C@@H](C)CN(C)[C@H](C)[C@@H](O)[C@]1(C)O [Azithromycin] + Clc1ccc(COC(Cn2ccnc2)c2ccc(Cl)cc2Cl)c(Cl)c1 [Miconazole] | 0.0855 | -0.0368 | 0.0828 | 0.0679 |  |  |  | 
9 | CN(N=O)C(=O)N[C@@H](C=O)[C@@H](O)[C@H](O)[C@H](O)CO [Streptozotocin] + Oc1cc(Cl)ccc1Oc1ccc(Cl)cc1Cl [Triclosan] | -0.0506 | 0.0542 | -0.0226 | 0.095 |  |  |  | 
10 | O=C(O)[C@H]1/C(=C/CO)O[C@@H]2CC(=O)N21 [Clavulanic] + C[C@H]1COc2c(N3CCN(C)CC3)c(F)cc3c(=O)c(C(=O)O)cn1c23 [Levofloxacin] | -0.197 | -0.222 | 0.242 | -0.024 |  |  |  | 
11 | O=C(O)[C@H]1/C(=C/CO)O[C@@H]2CC(=O)N21 [Clavulanic] + CCN(CC)CCOC(=O)c1ccc(N)cc1 [Procaine] | 0.0863 | 0.0977 | -0.0729 | -0.0363 |  |  |  | 
12 | Clc1ccc(COC(Cn2ccnc2)c2ccc(Cl)cc2Cl)c(Cl)c1 (stereo not drawn) [Miconazole] + COc1cc(Cc2cnc(N)nc2N)cc(OC)c1OC [Trimethoprim] | -0.117 | 0.0514 | 0.0486 | 0.0906 |  |  |  | 
